# Laboratory results taken from publication PMC12507022, “Widespread distribution of BpfA-mediated bisphenol F degradation among members of the Pseudomonadota and Actinomycetota” (The ISME Journal, 2025).
# Key:
# BpfA = test system: T1, BpfA; experiment: HPLC, Michaelis-Menten fit; assay type: biochemical, Microbacterium sp. F2; conditions: 20 mM Tris-HCl pH 8.0, 30 °C, O2 as electron acceptor
# T1 construct: recombinant from pET29a(+) (NdeI/XhoI) in E. coli BL21(DE3), Ni-NTA purified; contains flavin
# FBO = test system: T2, FBO; experiment: HPLC, Michaelis-Menten fit; assay type: biochemical, Sphingobium sp. W15; conditions: 20 mM Tris-HCl pH 8.0, 30 °C, 0.2 mM FAD added
# T2 construct: synthetic gene, expressed and purified like BpfA (E. coli, Ni-NTA)
Km (BpfA) [µM],Km (FBO) [µM],Compound
297 ± 5,–,COCc1ccc(O)cc1 [4MOP]
25.4 ± 2.9,170 ± 5.9,CCCc1ccc(O)c(OC)c1 [4PG]
266 ± 10.3,183 ± 9.3,COc1cc(CO)ccc1O [VA]

Compound,Km (BpfA) [µM],Km (FBO) [µM]
Oc1ccc(Cc2ccc(O)cc2)cc1 [BPF],12.4 ± 1.9,167 ± 12.8
